Data on two compounds can be found in patent US20250154135A1, “M-CHOLINE RECEPTOR AGONIST COMPOUND, PREPARATION METHOD THEREFOR AND USE THEREOF” (NANJING GRITPHARMA CO., LTD., priority 2022, published 2025).

The series can be described thus: Stability tests on compound starting materials (HPLC related substances). It counts as physicochemical. The conditions noted are these: for (Z-A) impurity A isopilocarpine / (Z-B) impurity B pilocarpic acid / (Z-C) impurity C isopilocarpic acid / Maximum single impurity / Total impurity: starting material. As for the experimental part:
Samples: compound 1, compound 2 and pilocarpine hydrochloride starting material solid particles.
High-temperature test: 1 g of each of compound 1, compound 2 and pilocarpine hydrochloride starting materials were taken and placed in an open container inside a constant temperature device at 40° C.; samples were taken at time points of day 0 and day 5, and then tested according to the key stability examination items. The stability of the active pharmaceutical ingredient itself and the trend of changes in stability under the conditions of influencing factor tests were observed.
Strong light irradiation test: 1 g of each of compound 1, compound 2 and pilocarpine hydrochloride starting materials were taken and placed in an open container inside a light irradiation box, with the illumination set at 4500 lx±500 lx; samples were taken at time points of day 0 and day 5, and then tested according to the key stability examination items.
High-humidity test: 1 g of each of compound 1, compound 2 and pilocarpine hydrochloride starting materials was taken and placed in an open container inside a constant humidity closed container at 25° C. and with a relative humidity of 75%±5%; samples were taken at day 0 and day 5, and then tested according to the requirements of the key stability examination items.
According to the records in the European Pharmacopoeia (EP), the key related substances to be examined for pilocarpine include: impurity A isopilocarpine (Z-A), impurity B pilocarpic acid (Z-B), and impurity C isopilocarpic acid (Z-C). The samples taken at different time points from the above high-temperature test, strong light irradiation test and high-humidity test were separately tested using high-performance liquid chromatography to observe the trend of changes in stability under the conditions of the influencing factor tests.
The related substances were determined according to the high-performance liquid chromatography (General Chapter 0512, Chinese Pharmacopoeia, Volume IV, 2020 Edition).
Test sample solution: an appropriate amount of each test sample was precisely weighed, dissolved in water, and diluted to prepare a solution containing 1 mg of test sample per 1 mL.
Chromatographic conditions: octadecyl bonded silica gel was used as a filler [kromasil 100-5-C18 column (4.0 mm×[…]) or a chromatographic column with equivalent performance], 0.679 g/L tetrabutylammonium dihydrogen phosphate-methanol-acetonitrile (885:55:60) (adjusted to pH 7.7 with dilute aqueous ammonia) was used as mobile phase A, and acetonitrile-water (80:20) was used as mobile phase B; gradient elution was performed according to Table 6-1, with a column temperature of 30° C., a flow rate of 1.0 mL/min, a detection wavelength of 220 nm, and a sample injection volume of 20 μL.

Where [1] appears, read: 40° C. and high light irradiation.

`CC[C@@H]1C(=O)OC[C@@H]1Cc1cncn1C` [Compound 1]: the “impurity increasing rate compared to pilocarpine hydrochloride starting material” value (shortened to “impurity increasing rate”) under setting [1] is given as “comparable to those of the pilocarpine hydrochloride starting material”. Further, where the note is “5 days, high humidity (RH 75%)”, the “impurity increasing rate” value was “significantly slower than those of the pilocarpine hydrochloride”. In addition, for the setting “40° C.-5 days”, the “(Z-A) impurity A isopilocarpine” value is on record as 0.365%, the “(Z-B) impurity B pilocarpic acid” value is 0%, the “(Z-C) impurity C isopilocarpic acid” value was found to be 0% and the Maximum single impurity was determined as 0%. The compound also gave a Total impurity (40° C.-5 days) of 0.365%. In addition, where the note is “Day 0”, the “(Z-A) impurity A isopilocarpine” value stood at 0.328%, the “(Z-B) impurity B pilocarpic acid” value is recorded as 0%, the “(Z-C) impurity C isopilocarpic acid” value was found to be 0% and the Maximum single impurity came out at 0%. The Total impurity (Day 0) amounted to 0.328%. For the setting “Light-5 days (4500 lx)”, the “(Z-A) impurity A isopilocarpine” value is 0.329%, the “(Z-B) impurity B pilocarpic acid” value turned out to be 0%, the “(Z-C) impurity C isopilocarpic acid” value was 0% and the Maximum single impurity was found to be 0%. Moreover, the Total impurity (Light-5 days (4500 lx)) was found to be 0.329%. Where the note is “RH 75%-5 days, 25° C.”, the “(Z-A) impurity A isopilocarpine” value came to 0.310%, the “(Z-B) impurity B pilocarpic acid” value amounted to 0%, the “(Z-C) impurity C isopilocarpic acid” value amounted to 0% and the Maximum single impurity stood at 0%. For the same compound, the Total impurity (RH 75%-5 days, 25° C.) came out at 0.331%.
On to `CC[C@@H]1C(=O)OC[C@@H]1Cc1cncn1C` [Compound 2], for which the “impurity increasing rate” value under setting [1] was “comparable to those of the pilocarpine hydrochloride starting material” and the “impurity increasing rate” value (5 days, high humidity (RH 75%)) was “significantly slower than those of the pilocarpine hydrochloride”. The “(Z-A) impurity A isopilocarpine” value turned out to be 0.338% (40° C.-5 days); 0.307% (Day 0); 0.333% (Light-5 days (4500 lx)); 0.311% (RH 75%-5 days, 25° C.). Besides, the “(Z-B) impurity B pilocarpic acid” value is 0.072% (40° C.-5 days); 0% (Day 0); 0.046% (Light-5 days (4500 lx)); 0.116% (RH 75%-5 days, 25° C.). The “(Z-C) impurity C isopilocarpic acid” value is, setting by setting: (40° C.-5 days) 0%; (Day 0) 0%; (Light-5 days (4500 lx)) 0%; (RH 75%-5 days, 25° C.) 0%. Moreover, the Maximum single impurity (40° C.-5 days) is 0%; the Maximum single impurity (Day 0) is recorded as 0%; the Maximum single impurity (Light-5 days (4500 lx)) is listed as 0%; the Maximum single impurity (RH 75%-5 days, 25° C.) is given as 0%. The same compound returned a Total impurity (40° C.-5 days) of 0.353%; a Total impurity (Day 0) of 0.307%; a Total impurity (Light-5 days (4500 lx)) of 0.339%; a Total impurity (RH 75%-5 days, 25° C.) of 0.427%.
